For 15 compounds, Ki results are on record in patent US20050209278A1, “Piperidinyl- and piperazinyl-sulfonylmethyl hydroxamic acids and their use as protease inhibitors” (priority 2002, published 2005).

As a reminder, the Ki is a dissociation constant, usually derived from enzyme kinetics or from competition with a known ligand.

SMILES strings stand for the structures. A value given as a limit tells only on which side of the number the result lay.

This assay deals with T1, MMP-1 (Homo sapiens, UniProt P03956).
T1 construct: made in house; host or cells: MMP-1-transfected HT-1080 cells (spent media)
T1 sequence (P03956 100-469): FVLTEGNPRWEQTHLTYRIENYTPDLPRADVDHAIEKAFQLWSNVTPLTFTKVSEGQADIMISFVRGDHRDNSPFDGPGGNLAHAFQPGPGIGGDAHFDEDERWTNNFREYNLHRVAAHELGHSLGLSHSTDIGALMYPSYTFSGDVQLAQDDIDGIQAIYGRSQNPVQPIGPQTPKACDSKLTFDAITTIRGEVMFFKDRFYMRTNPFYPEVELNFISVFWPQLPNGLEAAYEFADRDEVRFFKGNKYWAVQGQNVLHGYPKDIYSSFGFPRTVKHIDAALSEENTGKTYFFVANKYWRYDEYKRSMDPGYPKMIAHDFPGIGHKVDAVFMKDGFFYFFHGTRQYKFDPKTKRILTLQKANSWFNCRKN
The assay can be described thus: In vitro MMP inhibition, Ki determination (fluorogenic substrate II). The assay is classed as biochemical. As to conditions: value not in parenthesis; read-out: MMP-1 Ki. On the procedure: Several hydroxamic acids and salts thereof were analyzed in in vitro assays to determine their ability to inhibit the MMP cleavage of peptide substrates. […] and IC50 constants were calculated from the assayed hydroxamic acid-MMP interactions.
Human recombinant MMP-1, MMP-2, MMP-9, MMP-13, and MMP-14 were used in this assay. All enzymes were prepared in Assignee's laboratories following usual laboratory procedures. Protocols for the preparation and use of these enzymes are available in the scientific literature. See, e.g., Enzyme Nomenclature (Academic Press, San Diego, Calif., 1992) (and the citations therein). See also, Freije et al., “Molecular cloning and expression of collagenase-3, a novel human matrix metalloproteinase produced by breast carcinomas,” J Biol. Chem., 269(24), 16766-16773 (1994).
The MMP-1 proenzyme was purified from the spent media of MMP-1-transfected HT-1080 cells provided by Dr. Harold Welgus of Washington University (St. Louis, Mo.). The protein was purified on a zinc chelating column.
All MMPs were activated using 4-aminophenylmercuric acetate (“APMA”, Sigma Chemical, St. Louis, Mo.) or trypsin. MMP-9 also was activated using human recombinant MMP-3 (purified in Assignee's laboratory following standard cloning and purification techniques).
Two fluorogenic, methoxycoumarin-containing polypeptide substrates were used in the MMP inhibition assays: [drawing 427] Here, “Dpa” is 3-(2,4-dinitrophenyl)-L-2,3-diaminopropionyl group, and “MCA” is 7-methoxycoumarin-4-yl acetyl. Substrate (I) was purchased from Baychem (Redwood City, Calif.), and substrate II was prepared Assignee's laboratory. Substrate I was used in the IC50 determination assays, while substrate II was used in the Ki determination assays. In the absence of MMP inhibitory activity, either substrate is cleaved at the Gly-Leu peptide bond. This cleavage separates the highly fluorogenic peptide from the 2,4-dinitrophenyl quencher, thus resulting in increase of fluorescent intensity.
The stock solutions of the assayed hydroxamic acids (or salts thereof) were prepared in 1% dimethyl sulfoxide (DMSO). These stock solutions were diluted in Buffer A (100 mM Tris-HCl, 100 mM NaCl, 10 mM CaCl2, 0.05% polyoxyethylene 23 lauryl ether, pH 7.5) to obtain solutions with different hydroxamic acid concentrations, i.e., assay solutions with different concentrations of the assayed MMP inhibitory compound. The experiment controls contained the same amount of Buffer A/DMSO as the assayed sample, but contained no hydroxamic acid (or salt thereof).
The assays from which the Ki determinations were made were performed as follows. The assayed hydroxamic acid samples were incubated in separate wells of untreated white polystyrene plates (Nunc Nalgene International, Rochester, N.Y.), and analyzed on a Tecan SpectraFlour Plus plate reader. The excitation wavelength was 330 nm, and the emission wavelength—420 nm. All samples (assayed hydroxamic acids and controls) were incubated in separate plate wells at room temperature for 1 hr in the presence of 4 μM of MMP substrate (II). In the absence of MMP inhibitory activity, substrate II was cleaved at the Gly-Leu bond resulting in an increase of relative fluorescence. Inhibition was observed as a reduced rate of this increase in relative fluorescence. The various hydroxamic acids were analyzed using a single low enzyme concentration with a single substrate concentration fixed at or below the Km. This protocol is a modification of method by Knight et al., FEBS Lett., 296(3), 263-266 (1992). Apparent inhibitory constants were determined by non-linear regression of reaction velocity as a function of inhibitor and enzyme concentration using Morrison's equation, as described by Kuzmic, Anal. Biochem. 286, 45-50 (2000). […] Since the substrate concentration was chosen to be at or below the Km, the apparent Ki's from this analysis were reported as Ki's without correction for the influence of substrate.
For the compound `CCCCOc1ccc(N2CCN(S(=O)(=O)C3(C(=O)NO)CCN(c4cnccn4)CC3)CC2)cc1` [Example 140], the inhibition constant Ki is more than 10 µM.

For the compound `CCCCOc1ccc(N2CCN(S(=O)(=O)C3(C(=O)NO)CCN(C(=O)OCCOC)CC3)CC2)cc1` [Example 141], the inhibitory constant (Ki) is 8.9 µM.

Regarding `CCCCOc1ccc(N2CCN(S(=O)(=O)C3(C(=O)NO)CCN(c4ccc(OC)nc4)CC3)CC2)cc1` [Example 142], the inhibitory constant (Ki) was more than 10 µM.

With `CCCCOc1ccc(N2CCN(S(=O)(=O)C3(C(=O)NO)CCN(C(=O)c4cc5ccccc5s4)CC3)CC2)cc1` [Example 143], the inhibition constant Ki is more than 10 µM.

For `COCCN1CCC(C(=O)NO)(S(=O)(=O)N2CCN(c3ccc(OCC(F)(F)C(F)(F)F)cc3)CC2)CC1` [Example 144], the Ki was more than 10 µM.

On to `CCCCOc1ccc(N2CCN(S(=O)(=O)C3(C(=O)NO)CCOCC3)CC2)cc1` [Example 145], for which the Ki was more than 10 µM.

Consider `CCCCc1ccc(N2CCN(S(=O)(=O)C3(C(=O)NO)CCN(c4ccc(C)cc4)CC3)CC2)cc1` [Example 146], for which the inhibition constant (Ki) is more than 10 µM.

For `CCCCCc1ccc(N2CCN(S(=O)(=O)C3(C(=O)NO)CCN(c4ccc(C)cc4)CC3)CC2)cc1` [Example 147], the Ki was more than 10 µM.

For `COCCN1CCC(C(=O)NO)(S(=O)(=O)N2CCN(c3ccc(OCCC(C)C)cc3)CC2)CC1` [Example 148], the Ki is more than 10 µM.

For `CCCCOc1ccc(N2CCN(S(=O)(=O)C3(C(=O)NO)CCN(c4ccccn4)CC3)CC2)cc1` [Example 149], the inhibition constant Ki is more than 10 µM.

For `CCCCOc1ccc(N2CCN(S(=O)(=O)C3(C(=O)NO)CCN(c4nc5ccccc5o4)CC3)CC2)cc1` [Example 150], the Ki was more than 10 µM.

Take `O=C(NO)C1(S(=O)(=O)N2CCN(c3ccc(SC(F)(F)F)cc3)CC2)CCN(Cc2ccccc2)CC1` [Example 152]: the Ki was more than 10 µM.

Regarding `O=C(NO)C1(S(=O)(=O)N2CCN(c3ccc(OCCCC(F)(F)F)cc3)CC2)CCN(C2CC2)CC1` [Example 153], the Ki was more than 10 µM.

Regarding `CCCCOc1ccc(N2CCN(S(=O)(=O)C3(C(=O)NO)CCN(c4cccnc4)CC3)CC2)cc1` [Example 154], the inhibitory constant (Ki) is more than 10 µM.

On to `CCCCOc1ccc(N2CCN(S(=O)(=O)C3(C(=O)NO)CCN(c4ncc(CC)cn4)CC3)CC2)cc1` [Example 155], for which the Ki is more than 10 µM.
